Data taken from patent US20100324290A1, “CRYSTALLINE FORM I OF LAMIVUDINE AND ITS PREPARATION” (RANBAXY LABORATORIES LIMITED, priority 2007, published 2010).
Like-named read-outs stand apart in the source and are kept apart here.

What was measured:
[1] = during milling and formulation operation; prior-art Form I per WO 2007/119248; cited from earlier work
[2] = Stability of crystalline Form I to milling (solid form after milling, XRPD); format: physicochemical
Excerpt: In one aspect, a stable crystalline Form I of lamivudine is provided. […] The term milling refers to an act or process of grinding, crushing, pulverizing, powdering, atomizing, pestling, levigating, sifting, sieving, size reducing, or passing through a milling device. […] XRPD of the samples were obtained by using Panalytical X′Pert Pro X-Ray Powder Diffractometer in the range 3-40 degree 2 theta and under tube voltage and current of 45 Kv and 40 mA respectively. Copper radiation of wavelength 1.54 angstrom and Xceletor detector was used. Form II of lamivudine: Not detectable (Limit of detection: 0.5% by XRPD) The stable crystalline Form I of lamivudine obtained from Example 2 was subjected to the following conditions: […]

[3] = Storage stability of crystalline Form I (solid form after storage, XRPD); format: physicochemical
Excerpt: XRPD of the samples were obtained by using Panalytical X′Pert Pro X-Ray Powder Diffractometer in the range 3-40 degree 2 theta and under tube voltage and current of 45 Kv and 40 mA respectively. Copper radiation of wavelength 1.54 angstrom and Xceletor detector was used. Form II of lamivudine: Not detectable (Limit of detection: 0.5% by XRPD) The stable crystalline Form I of lamivudine obtained from Example 2 was subjected to the following conditions: […]

Compound | Conversion of solid form on milling [1] | Resultant Material after milling ([2]; Milled in a multimill (2 mm mesh size)) | Conversion of solid form on milling ([2]; pharmaceutical operations such as milling) | Resultant Material after storage ([3]; Stored at 25 ± 2° C. at 60 ± 5% RH for 3 months) | Resultant Material after storage ([3]; Stored at 40 ± 2° C. at 75 ± 5% RH for 1 month) | Resultant Material after storage ([3]; Stored at 40 ± 2° C. at 75 ± 5% RH for 2 months) | Resultant Material after storage ([3]; Stored at 40 ± 2° C. at 75 ± 5% RH for 3 months) | Solid-form stability on storage ([3]; stored up to three months at a temperature up to about 45° C. and at a relative humidity of about 25% to about 85%)
Nc1ccn([C@@H]2CS[C@H](CO)O2)c(=O)n1 [Form I, (2R,cis)-4-amino-1-(2-hydroxymethyl-1,3-oxathiolan-5-yl)-(1H)-pyrimidin-2-one] | converts to Form II |  |  |  |  |  |  | 
Nc1ccn([C@@H]2CS[C@H](CO)O2)c(=O)n1 [Form I obtained from Example 2, (2R,cis)-4-amino-1-(2-hydroxymethyl-1,3-oxathiolan-5-yl)-(1H)-pyrimidin-2-one] |  | Form I | does not convert to Form II | Form I | Form I | Form I | Form I | remains stable
